In ChEMBL document CHEMBL1157613, “Salicylic acid based small molecule inhibitor for the oncogenic Src homology-2 domain containing protein tyrosine phosphatase-2 (SHP2)” (J Med Chem, 2010):

Molecular target: T1, Receptor-type tyrosine-protein phosphatase C (Homo sapiens, UniProt P08575)
T1 sequence (P08575 whole entry): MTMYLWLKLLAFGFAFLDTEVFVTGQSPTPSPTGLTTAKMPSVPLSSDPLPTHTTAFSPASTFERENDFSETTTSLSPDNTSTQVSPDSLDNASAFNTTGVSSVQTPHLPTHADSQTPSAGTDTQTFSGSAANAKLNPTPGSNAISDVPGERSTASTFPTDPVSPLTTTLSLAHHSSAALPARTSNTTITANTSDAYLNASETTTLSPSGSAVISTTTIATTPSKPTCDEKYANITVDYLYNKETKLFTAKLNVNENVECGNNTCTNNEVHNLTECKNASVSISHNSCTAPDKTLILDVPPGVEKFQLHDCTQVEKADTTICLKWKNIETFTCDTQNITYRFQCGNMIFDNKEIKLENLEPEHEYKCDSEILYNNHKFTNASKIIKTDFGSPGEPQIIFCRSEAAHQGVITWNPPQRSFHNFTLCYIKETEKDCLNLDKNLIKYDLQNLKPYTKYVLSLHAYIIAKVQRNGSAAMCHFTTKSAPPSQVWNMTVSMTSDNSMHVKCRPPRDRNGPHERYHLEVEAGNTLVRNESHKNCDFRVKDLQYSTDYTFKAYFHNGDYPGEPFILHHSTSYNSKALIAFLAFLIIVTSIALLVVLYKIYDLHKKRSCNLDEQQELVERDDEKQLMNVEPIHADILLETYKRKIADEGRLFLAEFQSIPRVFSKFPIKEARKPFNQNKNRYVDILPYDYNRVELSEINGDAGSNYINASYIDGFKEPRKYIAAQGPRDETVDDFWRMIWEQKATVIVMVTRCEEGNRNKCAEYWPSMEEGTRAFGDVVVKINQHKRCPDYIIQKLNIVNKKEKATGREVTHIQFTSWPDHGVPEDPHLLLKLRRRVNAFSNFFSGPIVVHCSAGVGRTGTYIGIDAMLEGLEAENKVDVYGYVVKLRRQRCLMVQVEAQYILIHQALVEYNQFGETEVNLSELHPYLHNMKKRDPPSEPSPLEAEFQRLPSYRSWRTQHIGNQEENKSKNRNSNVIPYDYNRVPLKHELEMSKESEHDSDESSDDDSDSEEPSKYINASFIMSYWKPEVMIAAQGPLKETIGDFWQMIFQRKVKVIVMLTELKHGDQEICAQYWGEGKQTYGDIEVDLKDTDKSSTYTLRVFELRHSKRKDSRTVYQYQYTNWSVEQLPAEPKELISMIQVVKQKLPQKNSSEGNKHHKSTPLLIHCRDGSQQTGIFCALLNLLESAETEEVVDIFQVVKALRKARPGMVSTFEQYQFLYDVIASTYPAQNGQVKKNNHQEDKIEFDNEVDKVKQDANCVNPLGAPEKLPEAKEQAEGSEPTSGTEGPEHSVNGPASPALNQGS
Experiment: Inhibition of CD45 expressed in Escherichia coli assessed as inhibition of p-nitrophenyl phosphate hydrolysis at pH 7 by spectrophotometry

IC50: 30 µM
SMILES: Cn1c(-c2ccccc2)c(-c2cn(CCC(=O)Nc3ccc(-c4ccccc4)cc3)nn2)c2cc(C(=O)O)c(O)cc21
